US20220096592A1, “PIC1 VARIANTS WITH IMPROVED SOLUBILITY AND METHODS OF USING THE SAME” (priority 2019, published 2022)
Where a SMILES comes first, the peptide text is derived from it. [ ]: non-standard residue; d: D form. Sar = CNCC(=O)O

Assays:
[1] = system: antibody-initiated complement activation (ABO incompatible hemolysis); conditions: for inhibition of ABO incompatible hemolysis, in words: peptides at 1.8 mM, compared with PA-dPEG24, FIG. 1A; for complement inhibition overall, in words: both hemolytic complement inhibition assays
Description: (§1) For hemolytic complement assays, human red blood cells (RBCs) from type AB donors were purified, washed and standardized to 1×10^9 cells/ml, as previously described. Human sera from type 0 donors at a 20% final concentration was combined with […] PIC1 or sarcosine variant peptides, and the volume was brought up to 0.15 ml with GVBS^++ and […] RBCs. For factor B-depleted sera hemolytic assays, a final of 0.005% factor B depleted sera was incubated with […] PIC1 or sarcosine variant peptides with 0.1 ml antibody-sensitized sheep red blood cells (EA) in a final volume of 0.75 ml GVBS^++. The samples were incubated for one hour at 37° C. Then, 1.0 ml of GVBS^−− was added to the factor B-depleted samples to stop the reaction. The samples were spun at 3,000 rpm for 5 minutes. The supernatant was then collected and read at 412 nm. An analysis was performed to represent the values as a percent of the positive control, which consists of human 0 sera and AB red blood cells in GVBS^++ buffer.
(§2) An evaluation of the extent to which the peptide variants inhibit antibody-initiated complement activation was performed. The peptide variants were tested in the following two hemolytic assays: (i) an ABO incompatibility ex vivo assay and (ii) a classical pathway CH50-type assay in factor B-depleted sera.
In the ABO incompatibility hemolytic assay, purified erythrocytes from a ‘type AB+’ donor were incubated with sera from a ‘type 0’ subject containing anti-A and anti-B antibodies; peptides were tested at 1.8 mM.

MPO heme ring = biological target: T1, MPO heme ring (Homo sapiens, UniProt P05164); assay: MPO heme ring oxidative degradation (absorbance 300-550 nm); format: biochemical; conditions: peptides at 3 mM, with H2O2, FIG. 3A-3H
T1 construct: purchased Lee BioSolutions (Maryland Heights, Mo.)
T1 sequence (P05164 279-745 limits assumed): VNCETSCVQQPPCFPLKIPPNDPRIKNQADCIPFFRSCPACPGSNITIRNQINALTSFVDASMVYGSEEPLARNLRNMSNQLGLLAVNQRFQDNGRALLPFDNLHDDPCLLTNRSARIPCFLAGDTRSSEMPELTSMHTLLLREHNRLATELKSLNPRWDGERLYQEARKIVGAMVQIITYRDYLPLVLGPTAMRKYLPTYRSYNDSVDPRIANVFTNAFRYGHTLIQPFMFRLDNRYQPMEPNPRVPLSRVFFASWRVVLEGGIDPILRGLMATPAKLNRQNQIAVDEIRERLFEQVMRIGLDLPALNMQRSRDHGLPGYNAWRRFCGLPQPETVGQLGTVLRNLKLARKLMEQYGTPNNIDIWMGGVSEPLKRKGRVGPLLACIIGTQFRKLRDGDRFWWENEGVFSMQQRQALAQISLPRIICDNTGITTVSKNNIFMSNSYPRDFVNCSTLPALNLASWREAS
T1 sequence (P05164 165-273 limits assumed): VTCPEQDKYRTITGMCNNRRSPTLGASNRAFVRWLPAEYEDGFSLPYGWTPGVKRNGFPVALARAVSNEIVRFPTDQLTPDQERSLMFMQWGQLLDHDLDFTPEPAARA
Description: In a 96 well plate, 0.025 ml of 1.7 mg/ml MPO was combined with 0.00125 ml of 0.5% H2O2 and 3 mM PIC1 or sarcosine variant peptides in a total volume of 0.125 ml PBS and left to incubate at room temperature for 2 minutes. Using a 96 well plate reader, the wells were scanned for absorbance from 300-550 nm to generate curves reflecting the iron state in the MPO heme ring, as previously reported.
The ability of the variants to prevent degradation of the heme ring in the MPO molecule was then evaluated. […] Degradation of the heme ring can be evaluated via spectrometric measurements of absorption of wavelengths from 300 to 550 nm.

[2] = system: purified human neutrophils; assay: NETosis assay (immune complex activated serum and H2O2; PicoGreen free DNA, fluorescence microscopy); format: cell-based; conditions: peptides at 2 mM, FIG. 5A
Description: NETosis assays with immune complexes were performed as previously described. Briefly, normal human serum was stimulated with ovalbumin-antiovalbumin immune complexes in GVBS^++ for 30 minutes at 37° C. This mixture along with 0.05% H2O2 was then added to purified human neutrophils resuspended in RPMI with or without sarcosine variants (2 mM), allowing NETosis to occur. Quantitation of free DNA released from the neutrophils was performed using PicoGreen. Slides were stained with DAPI (Southern Biotech, Birmingham, Ala.). The following antibodies were used to visualize formation of NETs: • (i) mouse anti-elastase (Invitrogen, Carlsbad, Calif.) as a primary antibody with the secondary goat anti-mouse antibody Alexa Fluor 568 (Novus Biologicals, Centennial, Colo.) and • (ii) rabbit anti-histone H3 (Abcam, Cambridge Mass.) with goat anti-rabbit antibody Alexa Fluor 488 (Novus Biologicals). Fluorescence microscopy using an Olympus BX53 microscope was performed to visualize NETs.
The peptide variants were tested for inhibition of NETosis. In this assay, purified human neutrophils were stimulated with normal human serum activated with ovalbumin-antiovalbumin immune complexes and hydrogen peroxide. Free DNA expressed from the neutrophils was then measured in a PicoGreen assay. […] Direct visualization of neutrophil extracellular trap (NET) formation by fluorescence microscopy was used to confirm the above NETosis results with the 18 variant. Human neutrophils were purified and stimulated on glass slides then stained with DAPI to visualize DNA and probed with anti-neutrophil elastase (αNE) and anti-histone H3 (αhistone), as previously described. […] Fluorescence microscopy visualization of NETs confirmed the findings seen for quantitative measurements of free DNA.

[3] = system: classical complement pathway
Description: as §1, §2
A CH50-type hemolytic assay was then performed. with antibody-sensitized sheep erythrocytes, isolating the classical pathway by utilizing factor B-depleted sera; peptides were tested at 0.4 mM.

[4] = Total Antioxidant Capacity (TAC) assay; conditions: for total antioxidant capacity, in words: 0.03-0.25 mM, copper reducing equivalents, FIG. 4
Description: The TAC (Total Antioxidant Capacity) Assay (Cell Biolabs, Inc. San Diego, Calif.) was used to measure the antioxidant capacity of the sarcosine variants based on the reduction of copper (II) to copper (I). The assay was performed according to the recommended kit protocol.
Antioxidant activity was measured in copper reducing equivalents (CRE). Peptides were tested over a range of concentrations from 0.03-0.25 mM then compared to the standard.

myeloperoxidase (MPO) = biological target: T2, myeloperoxidase (MPO) (Homo sapiens, UniProt P05164); assay: MPO peroxidase activity, TMB-based assay; format: biochemical
T2 construct: purchased Lee BioSolutions (Maryland Heights, Mo.)
T2 sequence (P05164 279-745 limits assumed): as the sequence (P05164 279-745 limits assumed) above
T2 sequence (P05164 165-273 limits assumed): as the sequence (P05164 165-273 limits assumed) above
Description: PIC1 and sarcosine variants were diluted to 25 mg/ml and then serially titrated in a 96 well plate at a volume of 0.02 ml. Myeloperoxidase (MPO) was diluted to 20 μg/ml and 0.02 ml was added to the titrated peptides. TMB (3,3′,5,5′-tetramethylbenzidine) (0.1 ml) was added to each well for 2 minutes, followed by 0.1 ml of 2.5 N H2SO4 for another 2 minutes, and then read on a 96 well plate reader (BioTek) at 450 nm.
In this assay, the variants were tested for MPO inhibition over a range of concentrations. Strong MPO inhibition was found for all variants with the exception of the no-cysteine variant (C9,10).

C1q = biological target: T3, C1q (Homo sapiens, UniProt P02745+P02746+P02747); assay: ELISA-type assay of peptide binding to C1q; conditions: binding curves and half-maximal binding, FIG. 1C, 1D
T3 construct: purchased Complement Technology (Tyler, Tex.)
T3 sequence (P02745 23-245): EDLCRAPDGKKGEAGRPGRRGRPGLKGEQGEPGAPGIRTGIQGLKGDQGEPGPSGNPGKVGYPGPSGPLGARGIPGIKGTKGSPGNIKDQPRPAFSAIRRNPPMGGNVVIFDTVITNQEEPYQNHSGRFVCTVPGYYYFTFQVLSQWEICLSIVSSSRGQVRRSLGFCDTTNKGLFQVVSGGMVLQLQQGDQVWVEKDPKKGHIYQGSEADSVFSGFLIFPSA
T3 sequence (P02746 28-253): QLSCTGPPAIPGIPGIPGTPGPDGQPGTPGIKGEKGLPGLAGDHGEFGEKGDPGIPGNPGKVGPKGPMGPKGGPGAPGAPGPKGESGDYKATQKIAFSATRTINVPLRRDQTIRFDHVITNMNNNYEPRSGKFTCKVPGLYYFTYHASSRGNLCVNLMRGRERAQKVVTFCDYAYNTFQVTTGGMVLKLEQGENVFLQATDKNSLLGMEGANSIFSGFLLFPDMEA
T3 sequence (P02747 29-245): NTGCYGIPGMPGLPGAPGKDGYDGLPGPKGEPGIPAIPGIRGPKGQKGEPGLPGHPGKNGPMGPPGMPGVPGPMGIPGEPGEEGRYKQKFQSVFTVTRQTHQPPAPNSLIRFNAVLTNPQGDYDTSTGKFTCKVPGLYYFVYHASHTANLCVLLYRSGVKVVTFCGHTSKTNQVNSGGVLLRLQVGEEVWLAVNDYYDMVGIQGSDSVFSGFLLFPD
Description: (§3) The plates were washed with PBST (phosphate buffered saline+0.1% Tween) and then blocked with 1% gelatin/PBS for 2 hours at room temperature. After washing, the plates were incubated with PA or sarcosine variant peptides starting at 2.5 mg/ml and then serially diluted in 1% gelatin/PBS for 1 hour at room temperature. After washing, the plates were probed with rabbit anti-PA (developed with Cocalico Biologicals, Reamstown, Pa.) at 1:1000 in 1% gelatin/PBS for 1 hour, room temperature, followed by a goat anti-rabbit HRP (Sigma Aldrich, St Louis, Mo.) at 1:1,000 in 1% gelatin/PBS for 1 hour at room temperature with a washing step in between. Wells were developed using TMB substrate solution, stopped using 1 N H2SO4, and read at 450 nm in a plate reader.
Higher concentrations of DMSO interfere with the detecting reagents resulting in a partial binding curve.

MPO = biological target: T4, MPO (Homo sapiens, UniProt P05164); assay: plate-based assay of binding to solid phased MPO; conditions: binding curves and half-maximal binding, FIG. 2C, 2D
T4 construct: purchased Lee BioSolutions (Maryland Heights, Mo.)
T4 sequence (P05164 279-745 limits assumed): as the sequence (P05164 279-745 limits assumed) above
T4 sequence (P05164 165-273 limits assumed): as the sequence (P05164 165-273 limits assumed) above
Description: as §3
A plate-based assay was performed to test the binding of the peptide variants to solid phased MPO. MPO binding was identified for all variants, except for C9,10.

[5] = summary grade of Table 4, key not given

Compound | inhibition of ABO incompatible hemolysis, in words [1] | inhibition of heme ring degradation, in words (MPO heme ring) | inhibition of NETosis (free DNA, PicoGreen), in words [2] | complement inhibition overall, in words [1] | total antioxidant capacity, in words [4] | also measured
CC[C@H](C)[C@H](N)C(=O)N(C)CC(=O)N[C@@H](CC(C)C)C(=O)N[C@H](C(=O)N[C@@H](CC(C)C)C(=O)N[C@@H](CCC(=O)O)C(=O)N1CCC[C@H]1C(=O)N[C@H](C(=O)N[C@@H](CS)C(=O)N[C@@H](CS)C(=O)N[C@@H](CCC(N)=O)C(=O)N[C@@H](CCC(=O)O)C(=O)N[C@@H](CCCNC(=N)N)C(=O)N[C@@H](C)C(=O)N[C@@H](C)C(=O)O)[C@@H](C)CC)[C@@H](C)CC [A2] (H-I[Sar]LILEPICCQERAA-OH) | inhibited ABO incompatible hemolysis to a greater extent than did the PA-dPEG24 | – | – | – | – | –
CC[C@H](C)[C@H](N)C(=O)N[C@@H](C)C(=O)N[C@@H](CC(C)C)C(=O)N[C@H](C(=O)N[C@@H](CC(C)C)C(=O)N[C@@H](CCC(=O)O)C(=O)N1CCC[C@H]1C(=O)N[C@H](C(=O)N(C)CC(=O)N[C@@H](CCC(N)=O)C(=O)N[C@@H](CCC(=O)O)C(=O)N[C@@H](CCCNC(=N)N)C(=O)N[C@@H](C)C(=O)N[C@@H](C)C(=O)O)[C@@H](C)CC)[C@@H](C)CC [C9, 10] (H-IALILEPI[Sar]QERAA-OH) | minimal inhibition of ABO hemolysis | showed inhibition of heme ring degradation | only slight inhibition relative to the negative control | most, but not all, complement inhibition was lost | no antioxidant capacity | inhibition of classical pathway hemolysis, in words ([3]; peptides at 0.4 mM, compared with PA-dPEG24, FIG. 1B): minimal activity; Classical C’ inhibition [3, 5]: 0; ABO C’ inhibition [1, 5]: 0; Total Antioxidant Cap [4, 5]: 0; MPO inhibition, in words (myeloperoxidase (MPO); dose-response and half-maximal inhibition, FIG. 2A, 2B): does not possess; MPO inhibition (myeloperoxidase (MPO); [5]): 0
CC[C@H](C)[C@H](N)C(=O)N[C@@H](C)C(=O)N[C@@H](CC(C)C)C(=O)N[C@H](C(=O)N[C@@H](CC(C)C)C(=O)N[C@@H](CCC(=O)O)C(=O)N1CCC[C@H]1C(=O)N[C@H](C(=O)N(C)CC(=O)N[C@@H](CS)C(=O)N[C@@H](CCC(N)=O)C(=O)N[C@@H](CCC(=O)O)C(=O)N[C@@H](CCCNC(=N)N)C(=O)N[C@@H](C)C(=O)N[C@@H](C)C(=O)O)[C@@H](C)CC)[C@@H](C)CC [C9] (H-IALILEPI[Sar]CQERAA-OH) | inhibited ABO incompatible hemolysis to a greater extent than did the PA-dPEG24 | near perfect preservation of the heme ring absorption spectrum | – | performed almost identically to the parent compound, PA-dPEG24 | approximately half of the antioxidant capacity as PA-dPEG24 | –
CC[C@H](C)[C@H](N)C(=O)N[C@@H](C)C(=O)N[C@@H](CC(C)C)C(=O)N(C)CC(=O)N[C@@H](CC(C)C)C(=O)N[C@@H](CCC(=O)O)C(=O)N1CCC[C@H]1C(=O)N[C@H](C(=O)N[C@@H](CS)C(=O)N[C@@H](CS)C(=O)N[C@@H](CCC(N)=O)C(=O)N[C@@H](CCC(=O)O)C(=O)N[C@@H](CCCNC(=N)N)C(=O)N[C@@H](C)C(=O)N[C@@H](C)C(=O)O)[C@@H](C)CC [I4] (H-IAL[Sar]LEPICCQERAA-OH) | inhibited ABO incompatible hemolysis to a greater extent than did the PA-dPEG24 | – | reduced ability to inhibit NETosis compared with PA-dPEG24 | – | antioxidant capacity approaching that of PA-dPEG24 | –
CC[C@H](C)[C@H](N)C(=O)N[C@@H](C)C(=O)N(C)CC(=O)N[C@H](C(=O)N[C@@H](CC(C)C)C(=O)N[C@@H](CCC(=O)O)C(=O)N1CCC[C@H]1C(=O)N[C@H](C(=O)N[C@@H](CS)C(=O)N[C@@H](CS)C(=O)N[C@@H](CCC(N)=O)C(=O)N[C@@H](CCC(=O)O)C(=O)N[C@@H](CCCNC(=N)N)C(=O)N[C@@H](C)C(=O)N[C@@H](C)C(=O)O)[C@@H](C)CC)[C@@H](C)CC [L3] (H-IA[Sar]ILEPICCQERAA-OH) | – | – | – | – | antioxidant capacity approaching that of PA-dPEG24 | –
CC[C@H](C)[C@H](N)C(=O)N[C@@H](C)C(=O)N[C@@H](CC(C)C)C(=O)N[C@H](C(=O)N[C@@H](CC(C)C)C(=O)N[C@@H](CCC(=O)O)C(=O)N1CCC[C@H]1C(=O)N[C@H](C(=O)N[C@@H](CS)C(=O)N[C@@H](CS)C(=O)N[C@@H](CCC(N)=O)C(=O)N[C@@H](CCC(=O)O)C(=O)N[C@@H](CCCNC(=N)N)C(=O)N[C@@H](C)C(=O)N[C@@H](C)C(=O)O)[C@@H](C)CC)[C@@H](C)CC [PA] | – | – | – | – | – | binding to C1q, in words (C1q): superior binding to C1q as compared with the other peptides; binding to MPO, in words (MPO): near complete overlay of the 18 and PA curves
